This is an account of results in patent publication US20040142888A1, “Modulators of RabGGT and methods of use thereof” (priority 2002, published 2004).

Like-named read-outs stand apart in the source and are kept apart here.

In assay [1] the target is T1, rat RabGGT (Rattus norvegicus, UniProt Q08602+Q08603).
T1 construct: purchased Calbiochem 345855; host or cells: Sf9/baculovirus
T1 sequence (Q08602 1-567): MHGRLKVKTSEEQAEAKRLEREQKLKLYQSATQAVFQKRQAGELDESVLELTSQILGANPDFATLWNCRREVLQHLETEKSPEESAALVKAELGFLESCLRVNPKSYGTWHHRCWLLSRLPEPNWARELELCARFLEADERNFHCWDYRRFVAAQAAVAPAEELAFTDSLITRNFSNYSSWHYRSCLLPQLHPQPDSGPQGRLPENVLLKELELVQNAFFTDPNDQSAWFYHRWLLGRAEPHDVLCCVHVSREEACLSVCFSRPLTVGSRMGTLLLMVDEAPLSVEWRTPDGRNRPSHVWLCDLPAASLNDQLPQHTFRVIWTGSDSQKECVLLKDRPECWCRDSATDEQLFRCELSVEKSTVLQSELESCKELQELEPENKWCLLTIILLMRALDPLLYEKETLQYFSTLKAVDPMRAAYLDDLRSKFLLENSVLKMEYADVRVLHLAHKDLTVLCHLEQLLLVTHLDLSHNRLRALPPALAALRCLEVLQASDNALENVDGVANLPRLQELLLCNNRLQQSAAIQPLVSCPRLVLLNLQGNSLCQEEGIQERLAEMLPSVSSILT
T1 sequence (Q08603 1-331): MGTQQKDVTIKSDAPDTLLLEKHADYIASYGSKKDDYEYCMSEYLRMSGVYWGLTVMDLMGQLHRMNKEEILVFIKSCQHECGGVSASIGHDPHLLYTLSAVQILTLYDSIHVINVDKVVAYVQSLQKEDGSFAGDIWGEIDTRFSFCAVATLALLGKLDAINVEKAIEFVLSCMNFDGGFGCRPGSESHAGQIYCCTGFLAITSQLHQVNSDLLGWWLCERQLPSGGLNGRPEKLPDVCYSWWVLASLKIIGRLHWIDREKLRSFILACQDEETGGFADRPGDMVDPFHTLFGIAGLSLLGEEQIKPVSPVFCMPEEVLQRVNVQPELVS
Description: RabGGT filter binding assay: transfer of (3H)geranylgeranyl from 3H-GGPP to recombinant Rab3A. The assay is classed as biochemical. As to conditions: for IC90/IC50: RabGGT inhibition. The text has this:
The effect of compounds 7A through 7T on RabGGT activity was quantified using a filter binding assay that measures the transfer of (3H) geranylgeranyl groups (GG) from all-trans-(3H)geranylgeranyl pyrophosphate (3H-GGPP) to recombinant Rab3A protein (Shen & Seabra, 1996, JBC, 271 :3692; Armstrong et al., 1996, Methods in Enzymology 257:30). Modifications to published protocols are noted explicitly below.
Recombinant rat RabGGT, expressed using the Sf9/baculovirus system, was purchased from Calbiochem (cat. no. 345855). Recombinant unprenylated human Rab3A was obtained from Panvera.(cat. no. P2173). Human REβ-1, expressed in Sf9 cells, was obtained from Calbiochem (cat. no. 554000). Tritium labeled geranylgeranyl pyrophosphate was purchased from Amersham Pharmacia Biotech (15 Ci/mmol). Unlabeled GGPP was purchased from Sigma (cat. no. G-6025).
The reaction buffer contained 50 mM HEPES pH7.4, 5 mM MgCl2, 1 mM DTT, 1 mM Nβ-40. Solutions of RabGGT, Rab3A, REP-1, and GGPP were prepared in this reaction buffer. Final protein concentrations in the reaction mixture were modified from the published protocols, with the standard reaction mixture containing 2 μM Rab3A, 0.2 μM REP-1, 5 μM unlabeled GGPP, 0.5 μM labeled GGPP, and 10-50 nM RabGGT in a total volume of 20 μl. The specific activity of (3H)GGPP used in the assay was 3000 dpm/pmol.
Compounds were prepared as 50 mM stocks in DMSO and diluted to give an appropriate concentration for the assay as a 20% DMSO stock. 2 μl of the diluted compound stock was added to a 20 μl reaction to give a final DMSO concentration of 2% in the assay.
The order of addition of reagents was altered from the published protocols. Reaction mixtures were prepared by sequentially adding Rab3A and REP-1 proteins to the reaction buffer, followed by compound and RabGGT enzyme to a volume of 18 μl. Reactions were initiated by the addition of 2 μl of a solution that contained unlabeled and labeled GGPP. After a 30 minute incubation at 37° C., 1 ml of stop solution (1 volume of concentrated HCl acid with 9 volumes of ethanol) was added and mixed. The solution was then incubated at room temperature for 1 hour to completely precipitate proteins.
The precipitate was collected by vacuum filtration using a vacuum filtration manifold (Millipore model 1225) onto 25 mm GF/A filters (Whatman) that were prewetted with ethanol. The tubes were rinsed twice with 1 ml ethanol which was also poured over the filters. Each filter was subsequently washed three times with 2 mls of ethanol per wash, dried under vacuum, and then put in scintillation vials. Four milliliters of scintillation fluid was added and the radioactivity was quantified on a scintillation counter. Several types of blank reactions were conducted including withholding the enzyme, the substrate, or the accessory protein REP-1, or replacing the compound solution with a 20% DMSO solution. For the substrate titration experiment, the equimolar amounts of Rab3A and REP-1 were mixed and preincubated for 30 min at room temperature before addition of the enzyme.
The data was analyzed by non-linear regression analysis methods using the program PRIZM (GraphPad Software, Inc.). Inhibition constants were obtained by analyzing the data using the one site competition equation provided by the software. FIG. 7 presents a typical data series obtained for compound 7B using these methods.

Assay [2] relates to HCT-116 human colon tumor cells. Description: Compound-induced apoptosis in HCT-116 human colon tumor cells (microscopy for morphological markers). The assay is classed as cell-based. Here is the method: HCT-116 human colon tumor cells obtained from the American Type Culture Collection (ATCC) were grown in McCoy's 5A culture medium with 10% heat inactivated FBS, 1× penicillin/streptomycin, and 25 mM HEPES, in an incubator maintained at 37° C. with CO2 at 6-7% and humidity at 95%. Cells were treated with compounds using a dose range from 0.04 μM to 100 μM. After 48 hours they were examined by microscopy for signs of cell rounding, vaccuolation, and nuclear condensation. These are morphological markers associated with apoptosis, and are consistent with results obtained by performing an assay for nucleosomal DNA, or a TdT-mediated dUTP nick end labeling (TUNEL) assay.
The concentrations cited are the minimal concentration required to induce these morphological changes in 50% of the treated cells.

Where [3] appears, read: recombinant rat RabGGT, Rab3A, REP-1, 30 minute at 37° C.
[4] abbreviates: HCT-116, 48 h, HCT116 cells, 48 hours, minimal concentration inducing apoptotic morphological changes in 50% of treated cells, read-out: 50% APOPTOTIC
Where [5] appears, read: HCT-116, minimum concentration required to achieve apoptosis of 50% of the HCT116 cells (Table 7), read-out: HCT116 50% apoptosis.
Setting [6] is: HCT-116, minimum concentration required to achieve apoptosis of 50% of the HCT116 cells (Table 8), read-out: HCT116 50% apoptosis.

With `COc1ccc(S(=O)(=O)N2Cc3cc(C#N)ccc3N(Cc3cnc[nH]3)C[C@H]2Cc2ccccc2)cc1` [Compound 7A], in assay [1], the IC90/IC50 is on record as 8. The half-inhibitory concentration (IC50) in assay [1] (Table 7) and in assay [1] (setting [3]) was 36 nM throughout. In assay [1] (setting [3]), the IC90 (commonly the point of the concentration-response curve where the effect stands at 90%) amounted to 295 nM. The EC50 in assay [2] (setting [4]) was determined as 3700 nM; in assay [2] (setting [5]), 3300 nM; in assay [2] (setting [6]), 3300 nM.
Take `N#Cc1ccc2c(c1)CN(S(=O)(=O)N1CCCCC1)[C@H](Cc1ccccc1)CN2Cc1cnc[nH]1` [Compound 7B]: in assay [1], the IC90/IC50 is on record as 9. The concentration for half-maximal inhibition (IC50) in assay [1] (Table 7) and in assay [1] (setting [3]) was 21 nM in each case. In assay [1] (setting [3]), the IC90 was 199 nM. The EC50 in assay [2] (setting [4]), in assay [2] (setting [5]) and in assay [2] (setting [6]) was 370 nM throughout.
For the compound `CCCS(=O)(=O)N1Cc2cc(C#N)ccc2N(Cc2cnc[nH]2)C[C@H]1Cc1ccccc1` [Compound 7H], the IC90/IC50 in assay [1] was 5. In addition, the half-inhibitory concentration (IC50) in assay [1] (Table 7) and in assay [1] (setting [3]) was 21 nM each time. The IC90 in assay [1] (setting [3]) was determined as 115 nM. The EC50 in assay [2] (setting [4]), in assay [2] (setting [5]) and in assay [2] (setting [6]) was 370 nM throughout.
On to `COc1ccc(S(=O)(=O)N2Cc3cc(C#N)ccc3N(Cc3cncn3C)C[C@H]2Cc2ccccc2)cc1` [Compound 7I], for which the IC90/IC50 in assay [1] is listed as 6. Further, the IC50 in assay [1] (Table 7) and in assay [1] (setting [3]) was 16 nM in each case. For the same compound, in assay [1] (setting [3]), the 90% effect concentration (IC90) was found to be 93 nM. Also, the EC50 stood at 40 nM in assay [2] (setting [4]); 40 nM in assay [2] (HCT-116, 48 h, HCT-116 cells, 48 hours, read-out: minimum effective concentration (apoptosis in 50% of cells)); 40 nM in assay [2] (setting [5]); 40 nM in assay [2] (setting [6]).
As to `Cn1cncc1CN1C[C@@H](Cc2ccccc2)N(S(=O)(=O)c2cccs2)Cc2cc(C#N)ccc21` [Compound 7J], the IC90/IC50 in assay [1] was determined as 5. The 50% inhibitory concentration (IC50) in assay [1] (Table 7) and in assay [1] (setting [3]) was 12 nM in each case. Further, in assay [1] (setting [3]), the IC90 came to 58 nM. Also, the EC50 in assay [2] (setting [4]), in assay [2] (setting [5]) and in assay [2] (setting [6]) was 2500 nM each time.
